Source: PMC3848336, “Aurora Isoform Selectivity: Design and Synthesis of Imidazo[4,5-b]pyridine Derivatives as Highly Selective Inhibitors of Aurora-A Kinase in Cells” (Journal of Medicinal Chemistry, 2013)
Several values for one entry are separate records, joined by “and”; a condition that tells them apart may be missing. Identical values can stand only once. Like-named read-outs stand apart in the source and are kept apart here.

Assays:
[1] = target: MARK2 (Homo sapiens, UniProt Q7KZI7); experiment: Kinase selectivity profiling; assay type: biochemical; conditions: 110-kinase panel
Source text: (§1) Compound 28c was profiled against a panel of 110 kinases at the International Centre for Protein Kinase Profiling, Division of Signal Transduction Therapy, University of Dundee. Compound 40f was profiled against a panel of 50 kinases (MRC-PPU Express Screen) also at the International Centre for Protein Kinase Profiling.

[2] = target: IRR (Homo sapiens, UniProt P14616); experiment: Kinase selectivity profiling; assay type: biochemical; conditions: 110-kinase panel
Source text: as §1

[3] = target: ERK8 (Homo sapiens, UniProt Q8TD08); experiment: Kinase selectivity profiling; assay type: biochemical; conditions: 110-kinase panel
Source text: as §1

[4] = target: MARK1 (Homo sapiens, UniProt Q9P0L2); experiment: Kinase selectivity profiling; assay type: biochemical; conditions: 110-kinase panel
Source text: as §1

[5] = target: HIPK3 (Homo sapiens, UniProt Q9H422); experiment: Kinase selectivity profiling; assay type: biochemical; conditions: 110-kinase panel
Source text: as §1

[6] = target: MEKK1 (Homo sapiens, UniProt Q13233); experiment: Kinase selectivity profiling; assay type: biochemical; conditions: 110-kinase panel
Source text: as §1

[7] = target: DYRK2 (Homo sapiens, UniProt Q92630); experiment: Kinase selectivity profiling; assay type: biochemical; conditions: 110-kinase panel
Source text: as §1

[8] = target: FGF-R1 (Homo sapiens, UniProt P11362); experiment: Kinase selectivity profiling; assay type: biochemical; conditions: 110-kinase panel, read-out: % activity remaining, FGF2R1
Source text: as §1

[9] = target: PAK5 (Homo sapiens, UniProt Q9P286); experiment: Kinase selectivity profiling; assay type: biochemical; conditions: 110-kinase panel
Source text: as §1

[10] = target: BRSK1 (Homo sapiens, UniProt Q8TDC3); experiment: Kinase selectivity profiling; assay type: biochemical; conditions: 110-kinase panel
Source text: as §1

[11] = target: DYRK1A (Homo sapiens, UniProt Q13627); experiment: Kinase selectivity profiling; assay type: biochemical
Source text: as §1

[12] = target: JNK2 (Homo sapiens, UniProt P45984); experiment: Kinase selectivity profiling; assay type: biochemical; conditions: 110-kinase panel
Source text: as §1

[13] = system: AMPK; experiment: Kinase selectivity profiling; assay type: biochemical; conditions: 1 µM; 110-kinase panel
Source text: as §1

[14] = target: VEGFR (VEGFR1) (Homo sapiens, UniProt P17948); experiment: Kinase selectivity profiling; assay type: biochemical; conditions: read-out: % activity remaining, VEG2FR
Source text: as §1

[15] = target: PKBb (Homo sapiens, UniProt P31751); experiment: Kinase selectivity profiling; assay type: biochemical; conditions: 110-kinase panel
Source text: as §1

[16] = target: PRK2 (Homo sapiens, UniProt Q16513); experiment: Kinase selectivity profiling; assay type: biochemical
Source text: as §1

[17] = target: ROCK 2 (Rattus norvegicus, UniProt Q62868); experiment: Kinase selectivity profiling; assay type: biochemical
Source text: as §1

[18] = target: p38b MAPK (Homo sapiens, UniProt Q15759); experiment: Kinase selectivity profiling; assay type: biochemical; conditions: 110-kinase panel
Source text: as §1

[19] = target: MST4 (Homo sapiens, UniProt Q9P289); experiment: Kinase selectivity profiling; assay type: biochemical; conditions: 110-kinase panel
Source text: as §1

[20] = target: RSK2 (Homo sapiens, UniProt P51812); experiment: Kinase selectivity profiling; assay type: biochemical; conditions: 110-kinase panel
Source text: as §1

[21] = target: TTK (Homo sapiens, UniProt P33981); experiment: Kinase selectivity profiling; assay type: biochemical
Source text: as §1

[22] = In vivo mouse PK; conditions: plasma, mouse (female Balb/C), 5 mg kg^–1
Protocol: (§2) Mice (female Balb/C) were dosed po or iv with 28c (5 mg kg^–1) in 10% DMSO and 5% Tween 20 in saline. After administration, the mice were sacrificed at 5, 15, and 30 min and 1, 2, 4, 6, and 24 h. Blood was removed by cardiac puncture and centrifuged to obtain plasma samples. The plasma samples (100 μL) were added to the analytical internal standard (IS; olomoucine), followed by protein precipitation with 300 μL of methanol. Following centrifugation (1200g, 30 min, 4 °C), the resulting supernatants were analyzed for 28c levels by LC/MS using a reversed-phase X-Bridge C18 (Waters, 50 × 2.1 mm) analytical column and positive ion mode ESI MRM on a Waters 2795 liquid chromatography system coupled to a Quattro Ultima triple-quadrupole mass spectrometer (Waters).
as §2, with “40f” for “28c”, “The plasma samples (100 μL) were added to the analytical internal standard (IS; olomoucine), followed by protein precipitation with 300 μL of methanol.” left out, “Polar RP (Phenomenex,” for “X-Bridge C18 (Waters,”, “2” for “2.1”

[23] = target: Aurora A (Homo sapiens, UniProt O14965); experiment: Kinase selectivity profiling; assay type: biochemical; conditions: 110-kinase panel
[24] = system: AMPK (hum); experiment: Kinase selectivity profiling; assay type: biochemical, human; conditions: 1 µM; 50-kinase panel (MRC-PPU Express Screen)
Source text: as §1

[25] = target: Aurora B (Homo sapiens, UniProt Q96GD4); experiment: Cellular inhibition of histone H3 phosphorylation at S10 (Aurora-B biomarker) in HCT116 cells; assay type: cell-based
[26] = target: CK1δ (Homo sapiens, UniProt P48730); experiment: Kinase selectivity profiling; assay type: biochemical; conditions: 50-kinase panel (MRC-PPU Express Screen)
Source text: as §1

[27] = target: T1, Aurora-A wild type (Homo sapiens, UniProt O14965); experiment: Cellular inhibition of Aurora-A autophosphorylation at T288 in HCT116 cells; assay type: cell-based; conditions: 1.5 μM
T1 construct: expressed in transfected cells; host or cells: Hela cervical cancer cells; HCT116 human colon carcinoma cells
Protocol: Determination of cellular inhibition of Aurora-A (at T288) and histone H3 (at S10) has been described previously.[19] Briefly, cells were transfected with the Myc-tagged Aurora-A wild type or mutants and treated with different concentrations of the inhibitors for 2 h followed by lysis in LDS sample buffer. The samples were sonicated and boiled, and the proteins were separated by LDS–PAGE and transferred to nitrocellulose membranes. The upper and lower parts of the membranes were probed with anti-P-T288 (Aurora-A autophosphorylation/activation) and anti-P-histone H3 (Aurora-B substrate phosphorylation) antibodies, respectively. The blots were quantified and IC50 values determined using Graphpad Prism. Mammalian cell expression constructs encoding Aurora-A T217E, L215R, and R220K mutants with N-terminal Myc tags were produced using Quikchange mutagenesis (Stratagene).

[28] = 50-kinase panel (MRC-PPU Express Screen)

Aurora B, sequence (Q96GD4 whole entry): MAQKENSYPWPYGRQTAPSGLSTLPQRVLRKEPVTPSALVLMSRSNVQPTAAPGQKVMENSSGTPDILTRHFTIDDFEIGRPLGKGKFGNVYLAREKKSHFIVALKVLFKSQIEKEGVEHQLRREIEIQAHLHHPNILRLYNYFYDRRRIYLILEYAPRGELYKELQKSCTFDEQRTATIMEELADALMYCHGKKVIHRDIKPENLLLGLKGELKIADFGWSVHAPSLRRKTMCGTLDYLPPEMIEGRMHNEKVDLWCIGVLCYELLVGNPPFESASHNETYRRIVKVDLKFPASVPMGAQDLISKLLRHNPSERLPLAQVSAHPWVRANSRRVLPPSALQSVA
Aurora B, sequence (Q9NQS7 whole entry partner): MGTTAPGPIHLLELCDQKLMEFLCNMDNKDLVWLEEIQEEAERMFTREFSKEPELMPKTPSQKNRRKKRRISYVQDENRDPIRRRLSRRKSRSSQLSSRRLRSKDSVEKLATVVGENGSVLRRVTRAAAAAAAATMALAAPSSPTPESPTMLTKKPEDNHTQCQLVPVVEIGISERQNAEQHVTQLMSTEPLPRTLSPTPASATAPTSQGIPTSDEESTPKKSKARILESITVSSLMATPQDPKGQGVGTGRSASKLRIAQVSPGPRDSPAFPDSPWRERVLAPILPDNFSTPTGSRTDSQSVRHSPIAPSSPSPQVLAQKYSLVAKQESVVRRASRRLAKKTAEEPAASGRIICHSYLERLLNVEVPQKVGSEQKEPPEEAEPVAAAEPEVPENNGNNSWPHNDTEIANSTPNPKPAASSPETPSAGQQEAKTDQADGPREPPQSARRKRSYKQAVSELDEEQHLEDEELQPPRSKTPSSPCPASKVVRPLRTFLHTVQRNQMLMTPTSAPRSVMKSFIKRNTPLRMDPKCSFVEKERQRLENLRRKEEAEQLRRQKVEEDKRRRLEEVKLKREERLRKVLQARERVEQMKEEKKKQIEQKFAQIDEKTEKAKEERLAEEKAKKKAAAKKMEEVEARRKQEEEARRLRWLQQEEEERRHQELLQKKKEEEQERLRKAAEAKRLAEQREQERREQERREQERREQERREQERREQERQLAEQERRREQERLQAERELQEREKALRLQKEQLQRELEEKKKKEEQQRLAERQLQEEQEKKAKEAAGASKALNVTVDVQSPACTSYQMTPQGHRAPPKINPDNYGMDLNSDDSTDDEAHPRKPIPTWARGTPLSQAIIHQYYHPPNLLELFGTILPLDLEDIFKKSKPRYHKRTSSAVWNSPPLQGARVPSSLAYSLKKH
Aurora B, sequence (O15392 whole entry partner): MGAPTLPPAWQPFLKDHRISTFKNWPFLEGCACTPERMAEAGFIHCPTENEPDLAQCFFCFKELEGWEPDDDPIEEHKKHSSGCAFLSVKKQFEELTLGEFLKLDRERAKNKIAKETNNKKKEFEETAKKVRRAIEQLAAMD
Aurora B, sequence (Q53HL2 whole entry partner): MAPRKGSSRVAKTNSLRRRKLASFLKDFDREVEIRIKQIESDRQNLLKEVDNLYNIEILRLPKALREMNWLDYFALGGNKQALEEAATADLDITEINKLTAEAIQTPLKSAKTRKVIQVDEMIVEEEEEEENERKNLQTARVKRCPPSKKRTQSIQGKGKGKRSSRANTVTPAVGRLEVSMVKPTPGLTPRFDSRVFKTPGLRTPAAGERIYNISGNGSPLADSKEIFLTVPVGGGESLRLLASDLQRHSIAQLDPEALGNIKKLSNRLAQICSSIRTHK
PRK2, sequence (Q16513 whole entry, species assumed): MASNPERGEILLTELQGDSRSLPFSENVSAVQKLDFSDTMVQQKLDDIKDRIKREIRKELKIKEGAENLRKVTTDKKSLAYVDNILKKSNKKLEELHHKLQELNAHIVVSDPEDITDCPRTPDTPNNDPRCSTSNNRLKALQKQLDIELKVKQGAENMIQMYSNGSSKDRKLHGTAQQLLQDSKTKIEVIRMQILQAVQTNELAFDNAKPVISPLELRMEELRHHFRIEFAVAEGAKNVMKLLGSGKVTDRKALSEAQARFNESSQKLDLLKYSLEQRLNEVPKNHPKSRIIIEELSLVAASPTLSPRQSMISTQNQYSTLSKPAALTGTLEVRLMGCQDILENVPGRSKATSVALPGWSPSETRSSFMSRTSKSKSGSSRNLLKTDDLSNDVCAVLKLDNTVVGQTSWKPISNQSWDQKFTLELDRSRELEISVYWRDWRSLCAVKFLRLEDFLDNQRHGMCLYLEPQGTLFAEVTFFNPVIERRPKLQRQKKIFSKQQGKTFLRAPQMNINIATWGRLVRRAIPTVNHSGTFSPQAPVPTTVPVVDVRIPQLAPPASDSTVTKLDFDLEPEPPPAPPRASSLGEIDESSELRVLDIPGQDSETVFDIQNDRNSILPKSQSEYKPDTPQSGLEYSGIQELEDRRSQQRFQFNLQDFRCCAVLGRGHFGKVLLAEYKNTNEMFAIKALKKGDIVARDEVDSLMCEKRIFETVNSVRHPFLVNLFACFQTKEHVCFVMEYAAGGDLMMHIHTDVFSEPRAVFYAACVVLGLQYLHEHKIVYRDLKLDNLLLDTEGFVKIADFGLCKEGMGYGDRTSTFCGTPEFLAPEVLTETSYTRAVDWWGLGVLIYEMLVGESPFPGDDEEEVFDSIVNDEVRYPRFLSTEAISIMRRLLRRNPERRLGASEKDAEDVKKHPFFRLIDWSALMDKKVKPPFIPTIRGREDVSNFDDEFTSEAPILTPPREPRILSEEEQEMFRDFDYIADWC
TTK, sequence (P33981 whole entry): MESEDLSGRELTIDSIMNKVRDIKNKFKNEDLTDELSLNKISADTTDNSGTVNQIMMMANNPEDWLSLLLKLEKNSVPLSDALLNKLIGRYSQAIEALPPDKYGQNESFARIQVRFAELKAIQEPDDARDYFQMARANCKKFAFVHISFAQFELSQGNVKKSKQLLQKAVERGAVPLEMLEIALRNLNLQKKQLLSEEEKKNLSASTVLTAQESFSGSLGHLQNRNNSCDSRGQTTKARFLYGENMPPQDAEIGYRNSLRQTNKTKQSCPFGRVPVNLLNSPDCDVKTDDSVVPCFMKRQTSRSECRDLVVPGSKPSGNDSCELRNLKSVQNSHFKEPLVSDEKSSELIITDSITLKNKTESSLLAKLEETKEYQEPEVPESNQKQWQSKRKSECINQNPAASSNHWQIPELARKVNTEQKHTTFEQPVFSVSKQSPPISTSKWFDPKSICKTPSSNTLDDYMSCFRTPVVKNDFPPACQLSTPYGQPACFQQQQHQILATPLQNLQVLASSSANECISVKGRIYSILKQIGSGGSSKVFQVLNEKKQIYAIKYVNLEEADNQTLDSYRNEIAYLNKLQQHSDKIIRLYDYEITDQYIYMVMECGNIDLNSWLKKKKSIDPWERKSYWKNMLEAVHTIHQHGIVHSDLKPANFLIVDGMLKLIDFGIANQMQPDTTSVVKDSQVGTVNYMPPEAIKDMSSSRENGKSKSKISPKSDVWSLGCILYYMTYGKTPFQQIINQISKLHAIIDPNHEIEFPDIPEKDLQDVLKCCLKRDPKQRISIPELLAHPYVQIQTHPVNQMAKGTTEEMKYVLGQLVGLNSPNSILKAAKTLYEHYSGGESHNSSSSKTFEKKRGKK
ROCK 2, sequence (Q62868 2-543 limits assumed): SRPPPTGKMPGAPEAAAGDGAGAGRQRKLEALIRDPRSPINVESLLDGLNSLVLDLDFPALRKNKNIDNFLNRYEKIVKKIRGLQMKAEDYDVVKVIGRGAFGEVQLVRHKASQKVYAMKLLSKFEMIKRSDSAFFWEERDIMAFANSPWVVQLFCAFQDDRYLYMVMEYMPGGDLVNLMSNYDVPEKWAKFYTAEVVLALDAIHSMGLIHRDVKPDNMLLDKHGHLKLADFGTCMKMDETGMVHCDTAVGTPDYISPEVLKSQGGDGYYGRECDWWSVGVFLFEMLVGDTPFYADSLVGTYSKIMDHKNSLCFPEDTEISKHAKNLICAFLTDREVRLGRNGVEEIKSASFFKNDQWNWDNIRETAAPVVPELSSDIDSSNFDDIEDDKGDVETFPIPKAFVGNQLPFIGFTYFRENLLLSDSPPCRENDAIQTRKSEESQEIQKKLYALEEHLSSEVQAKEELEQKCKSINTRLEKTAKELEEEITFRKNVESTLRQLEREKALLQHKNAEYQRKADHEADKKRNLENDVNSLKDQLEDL
CK1δ, sequence (P48730 whole entry): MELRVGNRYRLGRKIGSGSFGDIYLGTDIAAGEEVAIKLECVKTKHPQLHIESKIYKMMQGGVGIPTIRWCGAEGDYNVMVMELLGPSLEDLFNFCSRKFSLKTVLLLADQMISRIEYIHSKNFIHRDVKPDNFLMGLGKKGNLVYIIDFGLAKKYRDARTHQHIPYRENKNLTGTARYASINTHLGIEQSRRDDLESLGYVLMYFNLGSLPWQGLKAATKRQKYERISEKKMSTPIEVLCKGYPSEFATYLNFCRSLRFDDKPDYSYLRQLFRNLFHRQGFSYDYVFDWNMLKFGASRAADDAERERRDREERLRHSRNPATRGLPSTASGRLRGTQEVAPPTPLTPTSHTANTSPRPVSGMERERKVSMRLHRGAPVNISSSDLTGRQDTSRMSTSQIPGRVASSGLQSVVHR
p38b MAPK, sequence (Q15759 whole entry): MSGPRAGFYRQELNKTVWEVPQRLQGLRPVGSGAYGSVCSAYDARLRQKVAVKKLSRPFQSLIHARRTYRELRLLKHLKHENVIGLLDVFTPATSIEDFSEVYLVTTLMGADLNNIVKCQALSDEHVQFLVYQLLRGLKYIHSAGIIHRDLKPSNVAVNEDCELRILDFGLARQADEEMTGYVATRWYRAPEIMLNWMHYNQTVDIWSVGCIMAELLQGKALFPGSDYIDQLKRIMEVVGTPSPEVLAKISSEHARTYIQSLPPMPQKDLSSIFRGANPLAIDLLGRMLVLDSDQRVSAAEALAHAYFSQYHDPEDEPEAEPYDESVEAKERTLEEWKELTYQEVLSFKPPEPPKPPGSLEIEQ

## Cc1nn(C)cc1-c1nc2c(Oc3ccc(C(=O)Nc4ccccc4)cc3)c(Cl)cnc2[nH]1 [compound 28c, 4-((6-Chloro-2-(1,3-dimethyl-1H-pyrazol-4-yl)-3H-imidazo[4,5-b]pyridin-7-yl)oxy)-N-phenylbenzamide]
[1]
  remaining activity at 1 µM: 104%
[2]
  remaining activity at 1 µM: 108%
[3]
  remaining activity at 1 µM: 36%
[4]
  remaining activity at 1 µM: 103%
[5]
  remaining activity at 1 µM: 96%
[6]
  remaining activity at 1 µM: 93%
[7]
  remaining activity at 1 µM: 87%
[8]
  remaining activity at 1 µM: 82%
[9]
  remaining activity at 1 µM: 56%
[10]
  remaining activity at 1 µM: 109%
[11]; 110-kinase panel
  remaining activity at 1 µM: 105%
[12]
  remaining activity at 1 µM: 90%
[13]
  % activity remaining, AMPK: 83%
[14]; 110-kinase panel
  remaining activity at 1 µM: 17%
[15]
  remaining activity at 1 µM: 78%
[16]; 110-kinase panel
  remaining activity at 1 µM: 81%
[17]; 110-kinase panel
  remaining activity at 1 µM: 80%
[18]
  remaining activity at 1 µM: 89%
[19]
  remaining activity at 1 µM: 115%
[20]
  remaining activity at 1 µM: 94%
[21]; 110-kinase panel
  remaining activity at 1 µM: 102%
[22]
  clearance: 0.883 mL/min and 44.2 mL/min/kg
[22]; read-out: volume of distribution
  Vd: 0.036 L
[23]
  remaining activity at 1 µM: 4%

## Cc1nn(C)cc1-c1nc2c(Oc3ccc(C(=O)NC4CCC4)cc3)c(Cl)cnc2[nH]1 [compound 40f, 4-((6-Chloro-2-(1,3-dimethyl-1H-pyrazol-4-yl)-3H-imidazo[4,5-b]pyridin-7-yl)oxy)-N-cyclobutylbenzamide]
[24]
  % activity remaining, AMPK (hum): 85%
[25]; 1.5 μM
  histone H3 phosphorylation: increase in histone H3 phosphorylation
[25]; 25 μM
  inhibition of histone H3 phosphorylation at S10: partial inhibition
[25]; 50 μM
  inhibition of histone H3 phosphorylation at S10: complete inhibition
[11]; [28]
  remaining activity at 1 µM: 104%
[14]; [28]
  remaining activity at 1 µM: 7%
[26]
  remaining activity at 1 µM: 87%
[16]; [28]
  remaining activity at 1 µM: 92%
[17]; [28]
  remaining activity at 1 µM: 73%
[21]; [28]
  remaining activity at 1 µM: 74%
[27]
  phosphorylation of Aurora-A: completely inhibited
